The results in this text go back to ChEMBL document CHEMBL3045575, “Synthesis of tetracyclic aza-/oxa-naphthalen-8-ones and their antimicrobial activity” (2013).

Holding throughout (assay type): functional
In one assay the test system is Fusarium graminearum. Nature of the assay: Antifungal activity against Fusarium graminearum at 100 ug after 7 days by poison-food method. The settings on record: 168 h, read-out: IZ.
The next assay has as its system Micrococcus luteus. Nature of the assay: Antibacterial activity against Micrococcus luteus at 100 ppm after 24 hr by cup-plate method. As to conditions: read-out: IZ.
The next assay relates to Escherichia coli. Nature of the assay: Antibacterial activity against Escherichia coli at 100 ppm after 24 hr by cup-plate method. The settings on record: read-out: IZ.
The subject of a further assay is Staphylococcus aureus. Nature of the assay: Antibacterial activity against Staphylococcus aureus at 100 ppm after 24 hr by cup-plate method. The settings on record: read-out: IZ.

Each structure is given as a SMILES string.

`O=C1CC2c3ccc4ccccc4c3OC2O1` (stereo not drawn): in the assay on Fusarium graminearum, the zone of inhibition at 100 µg/disc is 45 mm. In addition, the zone of inhibition at 100 ppm with Micrococcus luteus is 10 mm; in the assay on Escherichia coli, 11 mm; with Staphylococcus aureus, 10 mm.

As for `O=C1CC2c3ccc4ccccc4c3OC2N1c1cccc([N+](=O)[O-])c1` (stereo not drawn), the zone of inhibition at 100 µg/disc in the assay on Fusarium graminearum was determined as 25 mm. Besides, the zone of inhibition at 100 ppm in the assay with Micrococcus luteus is 9 mm; in the assay on Escherichia coli, 9 mm; with Staphylococcus aureus, 21 mm.

For the compound `O=C1CC2c3ccc4ccccc4c3OC2N1c1ccc([N+](=O)[O-])cc1` (stereo not drawn), the zone of inhibition at 100 µg/disc in the assay with Fusarium graminearum was found to be 25 mm. The zone of inhibition at 100 ppm amounted to 10 mm in the assay on Micrococcus luteus, 8 mm in the assay on Escherichia coli and 8 mm in the assay with Staphylococcus aureus.

Consider `O=C1CC2c3ccc4ccccc4c3OC2N1c1ccccc1` (stereo not drawn), for which the zone of inhibition at 100 µg/disc with Fusarium graminearum is 45 mm. In addition, the figures for the zone of inhibition at 100 ppm with Micrococcus luteus, with Escherichia coli and in the assay on Staphylococcus aureus were 11 mm, 11 mm and 10 mm, respectively.

With `Cc1ccc(N2C(=O)CC3c4ccc5ccccc5c4OC32)cc1` (stereo not drawn), the zone of inhibition at 100 µg/disc in the assay on Fusarium graminearum turned out to be 50 mm. In addition, the values for the zone of inhibition at 100 ppm with Micrococcus luteus, in the assay on Escherichia coli and with Staphylococcus aureus were 18 mm, 10 mm and 11 mm, respectively.

For the compound `CC1(C)S[C@@H]2[C@H](NC(=O)[C@H](N)c3ccccc3)C(=O)N2[C@H]1C(=O)O` [AMPICILLIN], the zone of inhibition at 100 ppm in the assay on Micrococcus luteus is 5 mm; with Escherichia coli, 4 mm; in the assay on Staphylococcus aureus, 5 mm.
